Values after ≈ are worked out from the molar mass of the structure shown.
What was measured:
[1] = biological target: T1, Follicle-stimulating hormone receptor (Homo sapiens, UniProt P23945); assay: Allosteric activation of human FSH receptor
T1 sequence (P23945 whole entry): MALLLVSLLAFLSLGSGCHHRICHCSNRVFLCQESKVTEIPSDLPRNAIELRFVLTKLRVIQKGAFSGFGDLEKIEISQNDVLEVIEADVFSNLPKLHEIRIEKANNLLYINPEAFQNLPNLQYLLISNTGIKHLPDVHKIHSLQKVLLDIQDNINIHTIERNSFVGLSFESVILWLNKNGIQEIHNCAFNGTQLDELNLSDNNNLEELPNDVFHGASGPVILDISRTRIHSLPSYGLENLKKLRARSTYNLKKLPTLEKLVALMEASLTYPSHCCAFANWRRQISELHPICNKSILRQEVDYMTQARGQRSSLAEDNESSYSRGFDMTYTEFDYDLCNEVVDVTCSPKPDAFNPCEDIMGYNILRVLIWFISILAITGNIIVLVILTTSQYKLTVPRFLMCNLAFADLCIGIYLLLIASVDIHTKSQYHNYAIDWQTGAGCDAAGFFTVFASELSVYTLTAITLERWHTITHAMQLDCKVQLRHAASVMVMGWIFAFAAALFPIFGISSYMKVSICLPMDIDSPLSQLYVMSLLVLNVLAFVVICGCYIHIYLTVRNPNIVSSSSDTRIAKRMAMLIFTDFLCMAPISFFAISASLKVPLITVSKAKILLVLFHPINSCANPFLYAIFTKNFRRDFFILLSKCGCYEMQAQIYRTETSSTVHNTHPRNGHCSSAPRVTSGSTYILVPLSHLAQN

[2] = biological target: T1, Follicle-stimulating hormone receptor; assay: Agonist activity at human FSH receptor by aromatase-based assay; format: functional
[3] = biological target: T1, Follicle-stimulating hormone receptor; assay: Agonist activity at human FSH receptor by cAMP-based assay; format: functional
[4] = biological target: Muscarinic acetylcholine receptor M1 (Rattus norvegicus, UniProt P08482); assay: Displacement of [3H]QNB from M1 receptor in Wistar rat cerebral cortex homogenate; format: tissue-based
Chain of Muscarinic acetylcholine receptor M1 (P08482 whole entry): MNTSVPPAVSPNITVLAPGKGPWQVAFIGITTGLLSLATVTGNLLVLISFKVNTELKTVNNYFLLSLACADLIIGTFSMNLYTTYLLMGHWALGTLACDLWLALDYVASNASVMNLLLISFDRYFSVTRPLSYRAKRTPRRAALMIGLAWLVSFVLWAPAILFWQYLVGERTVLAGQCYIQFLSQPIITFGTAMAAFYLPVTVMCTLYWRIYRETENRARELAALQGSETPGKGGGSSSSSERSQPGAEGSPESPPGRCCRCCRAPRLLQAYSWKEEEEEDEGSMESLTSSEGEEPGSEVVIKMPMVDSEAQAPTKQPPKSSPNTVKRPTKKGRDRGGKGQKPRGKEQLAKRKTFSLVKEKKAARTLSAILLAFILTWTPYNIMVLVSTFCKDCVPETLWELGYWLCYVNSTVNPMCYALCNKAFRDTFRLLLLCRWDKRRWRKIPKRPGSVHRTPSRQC

[5] = biological target: Tyrosine-protein phosphatase non-receptor type 1 (Homo sapiens, UniProt P18031); assay: Inhibition of GST-tagged PTP1B using pNPP as substrate by spectrophotometric analysis
Chain of Tyrosine-protein phosphatase non-receptor type 1 (P18031 whole entry): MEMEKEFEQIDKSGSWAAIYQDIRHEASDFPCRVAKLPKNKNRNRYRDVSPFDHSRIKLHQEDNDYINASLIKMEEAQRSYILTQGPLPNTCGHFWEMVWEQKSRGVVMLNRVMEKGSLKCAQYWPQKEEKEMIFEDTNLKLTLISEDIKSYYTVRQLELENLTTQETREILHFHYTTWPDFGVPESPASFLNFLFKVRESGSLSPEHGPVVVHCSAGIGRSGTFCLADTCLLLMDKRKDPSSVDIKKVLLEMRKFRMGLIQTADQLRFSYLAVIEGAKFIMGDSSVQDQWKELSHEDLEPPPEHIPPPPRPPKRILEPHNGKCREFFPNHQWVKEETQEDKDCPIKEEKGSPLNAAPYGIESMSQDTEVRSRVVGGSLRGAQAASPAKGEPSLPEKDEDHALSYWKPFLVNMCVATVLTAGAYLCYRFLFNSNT

[6] = system: Human immunodeficiency virus 1; assay: Antiviral activity against HIV1; format: functional, organism-based
[7] = biological target: T2, Human immunodeficiency virus type 1 integrase (Human immunodeficiency virus 1, UniProt Q7ZJM1); assay: Inhibition of HIV1 integrase 3' processing activity
T2 sequence (Q7ZJM1 whole entry): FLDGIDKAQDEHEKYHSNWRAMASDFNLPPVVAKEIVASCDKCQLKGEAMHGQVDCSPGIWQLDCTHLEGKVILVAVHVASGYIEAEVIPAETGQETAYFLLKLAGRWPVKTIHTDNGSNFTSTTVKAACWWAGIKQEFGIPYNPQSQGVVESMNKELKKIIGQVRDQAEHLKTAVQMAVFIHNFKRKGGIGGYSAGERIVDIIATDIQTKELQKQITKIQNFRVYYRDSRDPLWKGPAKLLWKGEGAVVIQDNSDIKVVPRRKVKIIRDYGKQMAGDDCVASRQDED

[8] = biological target: T2, Human immunodeficiency virus type 1 integrase; assay: Inhibition of HIV1 integrase strand transfer activity
[9] = Inhibition of HIV reverse transcriptase; design: species or system Human immunodeficiency virus
[10] = biological target: C-C chemokine receptor type 4 (Homo sapiens, UniProt P51679); assay: Antagonist activity at CCR4; format: functional
Chain of C-C chemokine receptor type 4 (P51679 whole entry): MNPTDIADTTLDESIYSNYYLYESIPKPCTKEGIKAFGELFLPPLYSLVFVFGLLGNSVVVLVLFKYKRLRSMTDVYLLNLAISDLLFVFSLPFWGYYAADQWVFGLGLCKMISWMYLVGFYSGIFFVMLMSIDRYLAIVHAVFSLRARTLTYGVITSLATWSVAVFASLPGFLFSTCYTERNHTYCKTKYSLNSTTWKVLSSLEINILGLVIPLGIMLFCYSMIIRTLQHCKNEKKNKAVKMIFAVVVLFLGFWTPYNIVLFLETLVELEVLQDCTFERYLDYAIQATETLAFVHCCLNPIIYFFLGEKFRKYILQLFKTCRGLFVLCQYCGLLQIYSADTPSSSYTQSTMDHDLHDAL

[11] = biological target: Phosphotyrosine-protein phosphatase PTPB (Mycobacterium tuberculosis, UniProt P96830); assay: Inhibition of Mycobacterium tuberculosis protein tyrosine phosphatase B
Chain of Phosphotyrosine-protein phosphatase PTPB (P96830 whole entry): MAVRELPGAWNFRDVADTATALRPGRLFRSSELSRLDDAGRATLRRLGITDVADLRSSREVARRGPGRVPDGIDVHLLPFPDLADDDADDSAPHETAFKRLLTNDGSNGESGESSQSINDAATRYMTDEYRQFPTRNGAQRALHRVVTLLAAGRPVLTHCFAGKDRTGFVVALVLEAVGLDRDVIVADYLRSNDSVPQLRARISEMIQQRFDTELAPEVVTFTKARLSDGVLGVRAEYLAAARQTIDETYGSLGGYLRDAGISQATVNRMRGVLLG

[12] = system: Mycobacterium tuberculosis; assay: Growth inhibition of Mycobacterium tuberculosis H37Rv; format: functional
[13] = system: Mycobacterium tuberculosis; assay: Antimycobacterial activity against Mycobacterium tuberculosis H37Rv by alamar blue susceptibility assay; format: functional
Escherichia coli = assay: Antibacterial activity against Escherichia coli; format: functional
Bacillus subtilis = assay: Antibacterial activity against Bacillus subtilis; format: functional
Salmonella typhimurium = assay: Antibacterial activity against Salmonella typhimurium; format: functional, Salmonella enterica subsp. enterica serovar Typhimurium
[14] = system: Mycobacterium tuberculosis; assay: Growth inhibition of Mycobacterium tuberculosis H37Rv at 6.25 ug/ml; format: functional; details: read-out: GI
[15] = system: Ditylenchus myceliophagus; assay: Nematicidal activity against Ditylenchus myceliophagus after 2 days; format: functional; details: 48 h, read-out: LD50 (the source's name)
Rattus norvegicus = assay: Antiinflammatory activity in rat assessed as inhibition of carageenaan-induced paw edema relative to control; format: functional
Caenorhabditis elegans = assay: Nematicidal activity against Caenorhabditis elegans after 2 days; format: functional; details: 48 h, read-out: LD50 (the source's name)
Trypanosoma = assay: Growth inhibition of epimastigote form of Trypanosoma at 100 ug/ml; format: functional; details: read-out: GI
Trypanosoma cruzi = assay: Growth inhibition of Trypanosoma cruzi at 100 ug/ml; format: functional; details: read-out: GI
[16] = system: Bovine viral diarrhea virus 1; assay: Antiviral activity against Bovine viral diarrhea virus; format: functional, organism-based; details: Bovine viral diarrhea virus isolates and strains
Influenza A virus = assay: Antiviral activity against Influenza A virus H3N2; format: functional, organism-based
Human alphaherpesvirus 2 = assay: Antiviral activity against Herpes simplex virus 2; format: functional, organism-based
Human alphaherpesvirus 1 = assay: Antiviral activity against Herpes simplex virus 1 KOS; format: functional, organism-based; details: Human alphaherpesvirus 1, KOS
Influenza B virus = assay: Antiviral activity against influenza B virus; format: functional, organism-based

COc1ccc(CCNC(=O)C[C@H]2S[C@@H](c3ccc(C#Cc4ccccc4)cc3)N(c3ccc(C(N)=O)c(Cl)c3)C2=O)cc1OC
EC50 [1]: 1 nM

CCOc1cc(CCNC(=O)C[C@H]2S[C@@H](c3ccc(C#Cc4ccccc4)cc3)NC2=O)ccc1OC
EC50 [2]: 50 nM
EC50 [3]: 80 nM

Cc1ccc(C2SCC(=O)N2C2=CCCN(C)C2)cc1 (centres undefined)
IC50 [4]: 143000 nM
Ki [4]: 26000 nM

O=C(O)CN1C(=O)/C(=C/c2ccc(-c3ccc(OCc4ccccc4)cc3)cc2)SC1=S
IC50 [5]: 480 nM

Cc1cccc(N2C(=O)CSC2c2ccccn2)n1 (centres undefined)
EC50 [6]: 7.8 nM

O=C(Nc1ccc(O)cc1)C(=S)NN1C(=O)/C(=C\c2cc(I)cc(I)c2O)SC1=S
IC50 [7]: 7000 nM
IC50 [8]: 3000 nM

Cc1nc(N2C(=O)CSC2c2ccccc2Cl)nc(C)c1C (centres undefined)
IC50 [9]: 2950 nM

C[C@H](NC(=O)C[C@H]1S[C@H](c2ccc(Cl)cc2Cl)N(CC(=O)NCCCN2CCCCC2)C1=O)c1cccc2ccccc12
IC50 [10]: 110 nM

O=C1CS(=O)(=O)C2(C(=O)N(Cc3ccc(Br)cc3)c3ccc([N+](=O)[O-])cc32)N1c1ccc(F)c(F)c1 (centres undefined)
IC50 [11]: 1100 nM

O=c1oc2ccccc2cc1-c1cs/c(=N\N=C\c2ccc(Cl)c(Cl)c2)n1C1CCCCC1
Imax [12]: 42%

COc1cc(C2SCC(=O)N2NC(=O)c2ccncc2)ccc1O (centres undefined)
MIC [13]: 0.31 µg/mL (≈ 0.898 µM)

CC1C(N2C(=O)CSC2c2cc(I)cc(I)c2O)C(=O)N(c2ccccc2)N1C (centres undefined)
inhibition zone (IZ) (Escherichia coli): 27 mm
inhibition zone (IZ) (Bacillus subtilis): 24 mm
inhibition zone (IZ) (Salmonella typhimurium): 25 mm

COc1ccc(C(=O)Nc2ccc(C(=O)NN3C(=O)CSC3c3coc([N+](=O)[O-])c3)cc2)cc1 (centres undefined)
inhibition of growth at 6.25 µg/mL [14]: 90%

COc1ccc(Cc2cccc(C3SC(CC(=O)O)C(=O)N3c3cccc(O)c3)c2)cc1C1SC(CC(=O)O)C(=O)N1c1cccc(O)c1 (centres undefined)
LC50 [15]: 210 µg/mL (≈ 300 µM)

Cc1c(N2C(=O)CSC2c2cc(I)cc(I)c2O)c(=O)n(-c2ccccc2)n1C (centres undefined)
inhibition zone (IZ) (Escherichia coli): 27 mm
inhibition zone (IZ) (Bacillus subtilis): 24 mm
inhibition zone (IZ) (Salmonella typhimurium): 25 mm

NS(=O)(=O)c1ccc(N2C(=O)CSC2c2ccccc2)cc1 (centres undefined)
inhibition (INH) (Rattus norvegicus): 78%

COc1ccc(Cc2cccc(C3SCC(=O)N3c3cccc(O)c3)c2)cc1C1SCC(=O)N1c1cccc(O)c1 (centres undefined)
LC50 (Caenorhabditis elegans): 240 µg/mL (≈ 410 µM)

O=C1CSC(c2cccc3ccccc23)N1c1ccc(Br)cc1 (centres undefined)
inhibition of growth at 100 µg/mL (Trypanosoma): 91.4%

CNC(=O)CC1S/C(=N\N=C(/C)c2cccc(Br)c2)N(C)C1=O (centres undefined)
inhibition of growth at 100 µg/mL (Trypanosoma cruzi): 60%

O=C(N/N=C1/SCC(=O)N1c1ccccc1)c1cc(-c2cc3ccccc3o2)n(-c2ccccc2)n1
inhibition zone (IZ) (Bacillus subtilis): 40 mm

CC1S/C(=N/N=C2\C(=O)Nc3ccc([N+](=O)[O-])cc32)N(c2ccc(Br)cc2)C1=O (centres undefined)
EC50 [16]: 13 µg/mL (≈ 27.4 µM)

Cc1cc(C)nc(N2C(=O)CSC2c2c(C)cccc2C)c1 (centres undefined)
EC50 (Influenza A virus): 249000 nM
EC50 (Human alphaherpesvirus 2): 161000 nM
EC50 (Human alphaherpesvirus 1): 130000 nM
EC50 (Influenza B virus): 263000 nM

COc1ccc(C(=O)Nc2ccc(C(=O)NN3C(=O)CSC3c3ccc(F)cc3)cc2)cc1 (centres undefined)
inhibition of growth at 6.25 µg/mL [14]: 98%

Cc1ccc(-c2cc(C(F)(F)F)nn2-c2ccc(S(N)(=O)=O)cc2)cc1 [CELECOXIB]
inhibition (INH) (Rattus norvegicus): 45%

Source: ChEMBL document CHEMBL2216749, “Recent developments and biological activities of thiazolidinone derivatives: a review” (Bioorg Med Chem, 2012)
